According to publication PMC12655529, “Serendipitous Hinge Modulation Hypothetically Reprograms Caerin 1.1-LC Antibacterial Mechanism and Gram-Negative Selectivity” (Pharmaceutics, 2025):
≈ marks a conversion by molar mass, not a printed value. Like-named read-outs stand apart in the source and are kept apart here. Square brackets hold non-standard residues; d marks the D form. Ends that are not written are not given here. Peptide text beside a SMILES is read from it.

Key:
Gram-positive bacteria = assay: Geometric mean MIC and therapeutic index, Gram-positive; format: cell-based; conditions: geometric mean of MICs
[1] = tested on: Acinetobacter baumannii ATCC BAA-747; format: cell-based
Experimental: (§2) The antimicrobial activities of the peptides were evaluated by determining their minimal inhibitory concentration (MIC) and minimal bactericidal concentration (MBC) values following reported protocols [20]. The tested microorganisms included seven Gram-negative bacterial strains (Escherichia coli ATCC 8739, E. coli ATCC-BAA 2340, E. coli NCTC 13846, Klebsiella pneumoniae ATCC 43816, K. pneumoniae ATCC BAA-2342, Pseudomonas aeruginosa ATCC 9027, Acinetobacter baumannii ATCC BAA-747), three Gram-positive bacterial strains (Staphylococcus aureus ATCC 6538, Enterococcus faecalis NCTC 12697, MRSA NCTC 12493, and the fungal strain Candida albicans ATCC 10231. For the assay, each bacterial strain was cultured overnight at 37 °C in 100 mL of medium in a flask. The cultures were then subcultured to reach the logarithmic growth phase and diluted to 5 × 10^5 CFU/mL. Peptide samples were serially diluted two-fold in microplates, with concentrations ranging from 128 μM to 1 μM. The diluted bacterial suspensions were mixed with the peptide solutions and incubated overnight at 37 °C. The MIC values were determined by measuring the absorbance of each well using a Synergy HT plate reader (Agilent, Cheshire, UK). For MBC determination, aliquots from wells showing no visible growth were inoculated onto agar plates to assess bacterial viability. Each experiment was repeated independently three times and conducted in three independent replicates.

[2] = tested on: Klebsiella pneumoniae ATCC 43816; format: cell-based
Experimental: as §2

[3] = tested on: Escherichia coli ATCC 8739; format: cell-based
[4] = tested on: MRC-5 human embryonic lung fibroblasts; format: cell-based; conditions: 24 h
Experimental: (§1) The peptide’s cytotoxicity against normal cell lines was detected by the MTT assay. Following resuscitation from cryopreservation (−80 °C), the cell line underwent multiple passages to ensure viability and adaptation. Cells were then seeded into 96-well plates and maintained at 37 °C in a 5% CO2 humidified atmosphere for 24 h to achieve proper adherence. After incubation, cells were serum-starved for 4 h using foetal bovine serum (FBS)-free medium (ThermoFisher, Waltham, MA, USA) to synchronise cell cycle progression. Peptide solutions were prepared at concentrations ranging from 128 μM to 1 μM (serial two-fold dilutions) and applied to the cells. Following peptide treatment, 10 μL of MTT (3-(4,5-dimethylthiazol-2-yl)-2,5-diphenyltetrazolium bromide) solution (5 mg/mL in PBS) was added to each well and incubated for 2 h at 37 °C. The medium was then carefully aspirated, and 100 μL of DMSO was added to dissolve the formazan crystals. Absorbance was measured at 570 nm using a microplate reader (Agilent, Cheshire, UK), with a reference wavelength of 630 nm to account for background interference. Experiments were conducted in triplicate and repeated three independent times.

[5] = tested on: HaCaT human keratinocytes; format: cell-based; conditions: 24 h
Experimental: as §1

[6] = tested on: HEK 293 human embryonic kidney cells; format: cell-based
Experimental: as §1

[7] = tested on: HMEC-1 human microvascular endothelial cells; format: cell-based; conditions: 24 h
Experimental: as §1

[8] = tested on: RAW 264.7 murine macrophages; format: cell-based; conditions: 24 h
Experimental: as §1

E. coli NCTC 13846 = format: cell-based, Escherichia coli
Experimental: as §2

E. coli ATCC BAA-2340 = format: cell-based, Escherichia coli
Experimental: as §2

horse red blood cells = assay: Haemolysis assay; format: cell-based; conditions: concentration inducing 10% haemolysis of horse erythrocytes; 4% (v/v) in PBS, 2 h, 37 °C, absorbance 570 nm; no haemolysis at maximum testing concentration (128 μM) recorded as 256 μM
In short: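 Horse erythrocytes, PBS-washed, at 4% (v/v) in PBS were exposed to peptide over a concentration range for 2 h at 37 °C. Supernatant absorbance at 570 nm was read after centrifugation. Haemolysis % was normalised between PBS blank (0%) and 0.1% Triton X-100 (100%).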

[9] = tested on: Staphylococcus aureus ATCC 6538; format: cell-based
[10] = tested on: Enterococcus faecalis NCTC 12697; format: cell-based
Experimental: as §2

[11] = tested on: Pseudomonas aeruginosa ATCC 9027; format: cell-based
Experimental: as §2

[12] = tested on: K. pneumoniae ATCC BAA-2342; format: cell-based, Klebsiella pneumoniae
MRSA NCTC 12493 = format: cell-based, Staphylococcus aureus
E. coli (ATCC-BAA 2340) = format: cell-based, Escherichia coli
In short: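 E. coli MIC by broth microdilution, determined after bacteria were pre-exposed to media with 150 mM NaCl, 4.5 mM KCl, 2 mM CaCl2, 1 mM MgCl2, 8 µM ZnCl2, 6 µM NH4Cl, 4 µM FeCl3, or 10% FBS. Three independent experiments, each in triplicate.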

[13] = tested on: Galleria mellonella larvae; assay: In vivo toxicity in larvae; conditions: uninfected G. mellonella larvae, injection at 1×, 2×, 4× MIC, n = 10 per group, observed five days
[14] = tested on: TNF-α secretion of LPS-stimulated RAW 264.7 cells; assay: LPS neutralisation assay (TNF-α ELISA); format: cell-based, murine; conditions: RAW 264.7, 100 ng/mL LPS, 24 h, peptide and hydrocortisone at the same concentration (hydrocortisone 10 μg/mL), LPS alone approximately 100 ng/mL
Experimental: Murine macrophage RAW 264.7 cells were cultured in 6-well plates at a density of 5 × 10^5 cells per well and allowed to adhere for 24 h at 37 °C in a 5% CO2 humidified incubator. Cells were then stimulated with 100 ng/mL LPS in the presence or absence of test peptides at varying concentrations (typically 1–100 μM). Hydrocortisone (10 μg/mL) served as the positive control for anti-inflammatory activity. After 24 h of incubation, cell culture supernatants were collected and centrifuged at 300× g for 10 min to remove cellular debris. Tumour necrosis factor-alpha (TNF-α) secretion was quantified using a mouse TNF-α ELISA Development Kit (ThermoFisher Scientific, Waltham, MA, USA) according to the manufacturer’s protocol.

Gram-negative bacteria = assay: Geometric mean MIC and therapeutic index, Gram-negative; format: cell-based; conditions: geometric mean of MICs
[15] = first value of MIC/MBC cell, 5 × 10^5 CFU/mL, overnight 37 °C, absorbance
[16] = second value of MIC/MBC cell, agar plating

GLLSVLGSLKLIVPHVVPLIAEKL-NH2 [Caerin 1.1-LC]
GM MIC Gram-Positive (Gram-positive bacteria): 14.25 µM | MBC, A. baumannii (ATCC BAA-747) ([1]; ATCC BAA-747): 128 µM | MIC, A. baumannii (ATCC BAA-747) ([1]; ATCC BAA-747): 16 µM | MBC, K. pneumoniae (ATCC 43816) ([2]; ATCC 43816): 64 µM | MIC, K. pneumoniae (ATCC 43816) ([2]; ATCC 43816): 16 µM | MBC, E. coli (ATCC 8739) ([3]; ATCC 8739): 64 µM | MIC, E. coli (ATCC 8739) ([3]; ATCC 8739): 16 µM | IC50 [4]: 14.8 µM | IC50 [5]: 61.2 µM | IC50 ([6]; 24 h): 10.8 µM | IC50 [7]: 79.3 µM | IC50 [8]: 6 µM | MBC, E. coli (NCTC 13846) (E. coli NCTC 13846): 32 µM | MIC, E. coli (NCTC 13846) (E. coli NCTC 13846): 4 µM | MBC, E. coli (ATCC BAA-2340) (E. coli ATCC BAA-2340): 16 µM | MIC, E. coli (ATCC BAA-2340) (E. coli ATCC BAA-2340): 8 µM | HC10 (horse red blood cells): 37.5 µM | MBC, S. aureus (ATCC 6538) ([9]; ATCC 6538): 128 µM | MIC, S. aureus (ATCC 6538) ([9]; ATCC 6538): 64 µM | MBC, E. faecalis (NCTC 12697) ([10]; NCTC 12697): >128 µM | MIC, E. faecalis (NCTC 12697) ([10]; NCTC 12697): >128 µM | MBC, P. aeruginosa (ATCC 9027) [11]: 128 µM | MIC, P. aeruginosa (ATCC 9027) [11]: 64 µM | MBC, K. pneumoniae (ATCC BAA-2342) [12]: 64 µM | MIC, K. pneumoniae (ATCC BAA-2342) [12]: 16 µM | MBC, MRSA (NCTC 12493) (MRSA NCTC 12493): 128 µM | MIC, MRSA (NCTC 12493) (MRSA NCTC 12493): 32 µM | MIC, Ca^2+ (E. coli (ATCC-BAA 2340); ATCC-BAA 2340): 64 µM | MIC, FBS (E. coli (ATCC-BAA 2340); ATCC-BAA 2340): 32 µM | MIC, Fe^3+ (E. coli (ATCC-BAA 2340); ATCC-BAA 2340): 16 µM | MIC, K^+ (E. coli (ATCC-BAA 2340); ATCC-BAA 2340): 16 µM | MIC, Mg^2+ (E. coli (ATCC-BAA 2340); ATCC-BAA 2340): 32 µM | MIC, NH4^+ (E. coli (ATCC-BAA 2340); ATCC-BAA 2340): 16 µM | MIC, Na^+ (E. coli (ATCC-BAA 2340); ATCC-BAA 2340): 16 µM | toxicity to larvae (mortality) [13]: complete mortality by day four or five post-injection

C[C@]12CCC(=O)C=C1CC[C@@H]1[C@@H]2[C@@H](O)C[C@@]2(C)[C@H]1CC[C@]2(O)C(=O)CO [hydrocortisone]
TNF-α level after LPS stimulation [14]: approximately 22.3 ng/mL

CC[C@H](C)[C@H](NC(=O)[C@H](CCCCN)NC(=O)[C@@H]1CCCN1C(=O)[C@H](NC(=O)[C@H](NC(=O)[C@H](Cc1c[nH]cn1)NC(=O)[C@@H]1CCCN1C(=O)[C@@H](NC(=O)[C@@H](NC(=O)[C@H](CCCCN)NC(=O)[C@H](CCCCN)NC(=O)[C@H](CC(C)C)NC(=O)[C@H](CO)NC(=O)[C@H](CCCCN)NC(=O)[C@H](CC(C)C)NC(=O)[C@@H](NC(=O)[C@H](CO)NC(=O)[C@H](CC(C)C)NC(=O)[C@H](CC(C)C)NC(=O)CN)C(C)C)[C@@H](C)CC)C(C)C)C(C)C)C(C)C)C(=O)N[C@@H](C)C(=O)N[C@@H](CCC(=O)O)C(=O)N[C@@H](CCCCN)C(=O)N[C@@H](CC(C)C)C(N)=O [Caerin 1.1-LC 7.11.19K.V(D)V(D)] (H-GLLSVLKSLKKIVPH[dV][dV]PKIAEKL-NH2)
GM MIC Gram-Positive (Gram-positive bacteria): 128 µM | MIC, A. baumannii (ATCC BAA-747) [1, 15]: 32 µM (≈ 83.5 µg/mL) | MBC, A. baumannii (ATCC BAA-747) [1, 16]: 128 µM (≈ 334 µg/mL) | MIC, K. pneumoniae (ATCC 43816) [2, 15]: 64 µM (≈ 167 µg/mL) | MBC, K. pneumoniae (ATCC 43816) [2, 16]: 128 µM (≈ 334 µg/mL) | MBC, E. coli (ATCC 8739) ([3]; ATCC 8739): 4 µM (≈ 10.4 µg/mL) | MIC, E. coli (ATCC 8739) ([3]; first value of MIC/MBC cell, 5 × 10^5 CFU/mL, peptide 128 to 1 μM two-fold, overnight 37 °C, absorbance, repeated three times): 2 µM (≈ 5.22 µg/mL) | IC50 ([6]; MTT, peptide 128 to 1 μM, absorbance 570 nm, triplicate, three independent repeats, NI = no inhibition activity, read-out: IC50, HEK 293): 130 µM | MBC, E. coli (NCTC 13846) (E. coli NCTC 13846): 8 µM (≈ 20.9 µg/mL) | MIC, E. coli (NCTC 13846) (E. coli NCTC 13846): 8 µM (≈ 20.9 µg/mL) | MBC, E. coli (ATCC BAA-2340) (E. coli ATCC BAA-2340): 4 µM (≈ 10.4 µg/mL) | MIC, E. coli (ATCC BAA-2340) (E. coli ATCC BAA-2340): 4 µM (≈ 10.4 µg/mL) | HC10 (horse red blood cells): 256 µM | MIC, S. aureus (ATCC 6538) [9, 15]: 128 µM (≈ 334 µg/mL) | MBC, S. aureus (ATCC 6538) [9, 16]: 128 µM (≈ 334 µg/mL) | MIC, E. faecalis (NCTC 12697) [10, 15]: >128 µM | MBC, E. faecalis (NCTC 12697) [10, 16]: >128 µM | GM MIC Gram-Negative (Gram-negative bacteria): 9.75 µM | MBC, P. aeruginosa (ATCC 9027) [11]: 4/4 µM | MIC, P. aeruginosa (ATCC 9027) [11]: 4/4 µM | MBC, K. pneumoniae (ATCC BAA-2342) [12]: 32 µM (≈ 83.5 µg/mL) | MIC, K. pneumoniae (ATCC BAA-2342) [12]: 16 µM (≈ 41.7 µg/mL) | MBC, MRSA (NCTC 12493) (MRSA NCTC 12493): 64 µM (≈ 167 µg/mL) | MIC, MRSA (NCTC 12493) (MRSA NCTC 12493): 64 µM (≈ 167 µg/mL) | MIC, Control (E. coli (ATCC-BAA 2340); ATCC-BAA 2340): 4 µM (≈ 10.4 µg/mL) | MIC, FBS (E. coli (ATCC-BAA 2340); ATCC-BAA 2340): 16 µM (≈ 41.7 µg/mL) | MIC, Fe^3+ (E. coli (ATCC-BAA 2340); ATCC-BAA 2340): 4 µM (≈ 10.4 µg/mL) | MIC, K^+ (E. coli (ATCC-BAA 2340); ATCC-BAA 2340): 4 µM (≈ 10.4 µg/mL) | MIC, Mg^2+ (E. coli (ATCC-BAA 2340); ATCC-BAA 2340): 32 µM (≈ 83.5 µg/mL) | MIC, NH4^+ (E. coli (ATCC-BAA 2340); ATCC-BAA 2340): 4 µM (≈ 10.4 µg/mL) | MIC, Na^+ (E. coli (ATCC-BAA 2340); ATCC-BAA 2340): 16 µM (≈ 41.7 µg/mL) | MIC, Ca^2+ (E. coli (ATCC-BAA 2340); E. coli (ATCC-BAA 2340), medium with 2 mM CaCl2): 128 µM (≈ 334 µg/mL)
